Test results reported in patent US20250074871A1, “PHENETHYLAMINES AND METHODS OF PREPARATION THEREOF” (priority 2022, published 2025).
Where two headings read alike, the source gives them in different places.

Key:
Format in all cases: cell-based
[1] = molecular target: T1, 5-HT2A receptor (Homo sapiens, UniProt P28223); experiment: 5-HT2A Gq dissociation BRET functional assay; conditions: for 5-HT2A BRET Eff %: normalized to % 5-HT stimulation
T1 construct: expressed in transfected cells; host or cells: HEK293T
T1 sequence (P28223 whole entry): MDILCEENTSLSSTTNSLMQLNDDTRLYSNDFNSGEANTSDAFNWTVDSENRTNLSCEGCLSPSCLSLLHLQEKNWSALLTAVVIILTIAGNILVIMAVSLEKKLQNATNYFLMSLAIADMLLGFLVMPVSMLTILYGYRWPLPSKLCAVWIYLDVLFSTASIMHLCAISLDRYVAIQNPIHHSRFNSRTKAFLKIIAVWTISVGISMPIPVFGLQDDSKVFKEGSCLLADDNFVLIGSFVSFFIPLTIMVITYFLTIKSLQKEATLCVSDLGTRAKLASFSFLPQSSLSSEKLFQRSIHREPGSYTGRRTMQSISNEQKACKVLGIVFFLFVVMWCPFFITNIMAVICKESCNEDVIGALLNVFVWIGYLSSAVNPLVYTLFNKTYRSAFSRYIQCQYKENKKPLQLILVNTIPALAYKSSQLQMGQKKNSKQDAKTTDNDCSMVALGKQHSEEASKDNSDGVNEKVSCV

[2] = molecular target: T2, 5-HT2B receptor (Homo sapiens, UniProt P41595); experiment: 5-HT2B Gq dissociation BRET functional assay; conditions: Table 2; for EC50: at least three replicate trials; for 5-HT2B BRET Eff %: normalized to % 5-HT stimulation
T2 construct: expressed in transfected cells; host or cells: HEK293T
T2 sequence (P41595 whole entry): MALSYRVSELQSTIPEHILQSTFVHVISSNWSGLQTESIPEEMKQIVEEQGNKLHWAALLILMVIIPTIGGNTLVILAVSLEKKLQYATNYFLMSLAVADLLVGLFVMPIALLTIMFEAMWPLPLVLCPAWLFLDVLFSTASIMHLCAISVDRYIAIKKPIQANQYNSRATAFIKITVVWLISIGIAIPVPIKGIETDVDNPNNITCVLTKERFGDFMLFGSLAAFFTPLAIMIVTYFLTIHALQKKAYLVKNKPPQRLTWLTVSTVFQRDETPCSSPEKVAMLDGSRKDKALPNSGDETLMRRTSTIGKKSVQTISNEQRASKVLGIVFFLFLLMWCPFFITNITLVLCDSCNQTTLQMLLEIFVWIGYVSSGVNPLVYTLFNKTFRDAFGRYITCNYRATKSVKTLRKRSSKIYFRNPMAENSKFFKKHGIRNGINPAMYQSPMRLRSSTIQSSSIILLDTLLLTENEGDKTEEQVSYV

[3] = molecular target: T3, 5-HT2C receptor (Homo sapiens, UniProt P28335); experiment: cell-based; conditions: Table 2; for EC50: at least three replicate trials, read-out: 5-HT2C BRET EC50; for 5-HT2C BRET Eff %: normalized to % 5-HT stimulation
T3 construct: expressed in transfected cells; host or cells: HEK293T
T3 sequence (P28335 33-458): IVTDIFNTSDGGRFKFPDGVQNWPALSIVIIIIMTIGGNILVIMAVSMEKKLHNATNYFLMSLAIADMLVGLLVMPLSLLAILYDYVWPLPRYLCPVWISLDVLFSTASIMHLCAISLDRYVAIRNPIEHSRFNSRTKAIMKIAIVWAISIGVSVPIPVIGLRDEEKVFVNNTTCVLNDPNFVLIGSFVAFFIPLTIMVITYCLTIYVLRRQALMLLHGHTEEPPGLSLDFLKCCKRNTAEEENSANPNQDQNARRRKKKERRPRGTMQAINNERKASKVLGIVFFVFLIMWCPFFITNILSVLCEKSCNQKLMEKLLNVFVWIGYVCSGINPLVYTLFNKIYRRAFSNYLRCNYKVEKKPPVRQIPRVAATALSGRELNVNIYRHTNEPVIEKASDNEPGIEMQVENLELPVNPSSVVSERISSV

[4] = molecular target: T4, human ether-a-go-go-related gene (hERG) K+ channel (Homo sapiens, UniProt Q12809); experiment: Eurofins hERG Qube APC Assay; conditions: for IC50 (hERG)/EC50 (5-HT2A) ratio: Table 4; for hERG risk potential: based on IC50 (hERG)/EC50 (5-HT2A) ratio
T4 construct: Eurofins
T4 sequence (Q12809 whole entry): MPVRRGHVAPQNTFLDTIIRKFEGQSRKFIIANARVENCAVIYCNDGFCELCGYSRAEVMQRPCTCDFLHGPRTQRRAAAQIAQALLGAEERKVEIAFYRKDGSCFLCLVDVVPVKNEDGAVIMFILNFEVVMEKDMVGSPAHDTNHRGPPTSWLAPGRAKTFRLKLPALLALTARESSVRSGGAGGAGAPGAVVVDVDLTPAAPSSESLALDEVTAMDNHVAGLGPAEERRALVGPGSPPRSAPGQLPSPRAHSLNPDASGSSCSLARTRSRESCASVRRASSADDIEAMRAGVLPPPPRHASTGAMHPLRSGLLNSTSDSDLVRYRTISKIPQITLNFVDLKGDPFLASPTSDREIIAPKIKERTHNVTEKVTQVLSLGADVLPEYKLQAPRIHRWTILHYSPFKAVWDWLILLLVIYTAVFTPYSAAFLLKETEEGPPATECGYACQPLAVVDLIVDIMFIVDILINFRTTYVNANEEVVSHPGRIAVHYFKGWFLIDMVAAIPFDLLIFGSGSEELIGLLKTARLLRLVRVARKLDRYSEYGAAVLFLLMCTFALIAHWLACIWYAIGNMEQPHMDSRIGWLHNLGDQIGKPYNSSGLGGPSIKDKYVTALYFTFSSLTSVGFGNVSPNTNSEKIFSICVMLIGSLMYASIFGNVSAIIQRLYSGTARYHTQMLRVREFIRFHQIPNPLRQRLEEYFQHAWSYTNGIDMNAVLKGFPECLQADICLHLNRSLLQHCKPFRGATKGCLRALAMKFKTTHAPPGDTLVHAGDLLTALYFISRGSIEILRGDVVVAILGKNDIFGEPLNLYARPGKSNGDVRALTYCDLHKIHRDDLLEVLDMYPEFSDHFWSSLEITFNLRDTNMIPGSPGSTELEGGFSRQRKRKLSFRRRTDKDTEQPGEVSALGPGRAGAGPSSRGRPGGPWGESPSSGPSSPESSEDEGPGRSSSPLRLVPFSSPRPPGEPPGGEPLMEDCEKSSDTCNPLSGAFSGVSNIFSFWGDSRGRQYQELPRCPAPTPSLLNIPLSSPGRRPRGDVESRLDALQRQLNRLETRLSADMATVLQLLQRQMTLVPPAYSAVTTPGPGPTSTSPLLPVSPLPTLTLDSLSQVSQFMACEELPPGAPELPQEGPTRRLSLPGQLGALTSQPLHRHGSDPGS
Description: As used herein and unless otherwise specified, the term “hERG risk” refers to the risk of a compound potentially inhibiting the human ether-a-go-go-related gene (hERG) K^+ channel, thereby leading to QT prolongation.
As a result of, many compounds disclosed in Table 1 and Table 2 were screened for the potential of “hERG risk” using pharmacological assays (e.g. Eurofins™ hERG Qube APC Assay). […].

[5] = 5-HT2A BRET EC50 (nM), Table 2, at least three replicate trials
[6] = EC50 BRET 2A, Table 4, unit inferred
[7] = Table 2, at least three replicate trials, read-out: 5-HT2A BRET EC50

COc1cc(C#N)ccc1CCNCc1ccccc1Cl [Cpd #12]
EC50 [1, 5]: 102 nM | EC50 [1, 6]: 102 nM | 5-HT2A BRET Eff % ([1]; Table 2): 90% | 5-HT2B BRET EC50 (nM) / Eff % [2]: Inactive | EC50 [3]: 1200 nM | 5-HT2C BRET Eff % [3]: 130% | IC50 [4]: 1720 nM | IC50 (hERG)/EC50 (5-HT2A) ratio [4]: 17 | hERG risk potential [4]: High (compounds exhibiting a IC50 (hERG) /EC50 (5-HT2A) ratio of less than or equal to 150 are generally indicative of high hERG risk potential)

COc1cccc(CNCCc2ccc(C#N)cc2OC)c1 [Cpd #28]
EC50 [1, 5]: 84 nM | EC50 [1, 6]: 84 nM | 5-HT2A BRET Eff % ([1]; Table 2): 68% | 5-HT2B BRET EC50 (nM) / Eff % [2]: Inactive | EC50 [3]: 873 nM | 5-HT2C BRET Eff % [3]: 91% | IC50 [4]: 1600 nM | IC50 (hERG)/EC50 (5-HT2A) ratio [4]: 19 | hERG risk potential [4]: High (compounds exhibiting a IC50 (hERG) /EC50 (5-HT2A) ratio of less than or equal to 150 are generally indicative of high hERG risk potential)

COc1cc(C#N)ccc1CCNCc1cccc2c1CCO2 [Cpd #63]
EC50 [1, 5]: 135 nM | EC50 [1, 6]: 135 nM | 5-HT2A BRET Eff % ([1]; Table 2): 62% | 5-HT2B BRET EC50 (nM) / Eff % [2]: Inactive | EC50 [3]: 2090 nM | 5-HT2C BRET Eff % [3]: 78% | IC50 [4]: 1600 nM | IC50 (hERG)/EC50 (5-HT2A) ratio [4]: 12 | hERG risk potential [4]: High (compounds exhibiting a IC50 (hERG) /EC50 (5-HT2A) ratio of less than or equal to 150 are generally indicative of high hERG risk potential)

COc1cc(C#N)ccc1CCNCc1cccc2occc12 [Cpd #64]
EC50 [1, 7]: 29.8 nM | 5-HT2A BRET Eff % ([1]; Table 2): 82% | EC50 ([1]; Table 4, unit inferred, read-out: EC50 BRET 2A): 29.8 nM | EC50 ([2]; read-out: 5-HT2B BRET EC50): 8920 nM | 5-HT2B BRET Eff % [2]: 93% | EC50 [3]: 357 nM | 5-HT2C BRET Eff % [3]: 104% | IC50 [4]: 900 nM | IC50 (hERG)/EC50 (5-HT2A) ratio [4]: 30 | hERG risk potential [4]: High (compounds exhibiting a IC50 (hERG) /EC50 (5-HT2A) ratio of less than or equal to 150 are generally indicative of high hERG risk potential)

COc1cc(Oc2ccccc2)ccc1CCNCc1ccccc1O [Cpd #127]
EC50 [1, 7]: 27.1 nM | 5-HT2A BRET Eff % ([1]; Table 2): 100% | EC50 ([2]; read-out: 5-HT2B BRET EC50): 3.8 nM | 5-HT2B BRET Eff % [2]: −20% | EC50 [3]: 148 nM | 5-HT2C BRET Eff % [3]: 104%

COc1cc(C#N)c(F)cc1CCNCc1ccccc1SC [Cpd #128]
EC50 [1, 5]: 7.8 nM | 5-HT2A BRET Eff % ([1]; Table 2): 99% | EC50 ([2]; 5-HT2B BRET EC50 (nM)): 723 nM | 5-HT2B BRET Eff % [2]: 109% | EC50 [3]: 114 nM | 5-HT2C BRET Eff % [3]: 118%

N#Cc1cc(O)c(CCNCc2ccccc2O)cc1F [Cpd #129]
EC50 [1, 5]: 7.8 nM | 5-HT2A BRET Eff % ([1]; Table 2): 95% | EC50 ([2]; 5-HT2B BRET EC50 (nM)): 249 nM | 5-HT2B BRET Eff % [2]: 62% | EC50 [3]: 67 nM | 5-HT2C BRET Eff % [3]: 105%

COc1ccccc1CNCCc1ccc(F)cc1O [Cpd #130]
EC50 [1, 5]: 18 nM | 5-HT2A BRET Eff % ([1]; Table 2): 84% | 5-HT2B BRET EC50 (nM) / Eff % [2]: Inactive | EC50 [3]: 8.7 nM | 5-HT2C BRET Eff % [3]: 101%

Cc1ccc(CCNCc2cccc3c2OCO3)c(O)c1 [Cpd #132]
EC50 [1, 5]: 49 nM | 5-HT2A BRET Eff % ([1]; Table 2): 70% | 5-HT2B BRET EC50 (nM) / Eff % [2]: Inactive | EC50 [3]: 770 nM | 5-HT2C BRET Eff % [3]: 84%

COc1cc(C#N)ccc1CCNCC1CC1 [Cpd #133]
EC50 [1, 7]: 10700 nM | 5-HT2A BRET Eff % ([1]; Table 2): 64% | EC50 ([2]; read-out: 5-HT2B BRET EC50): 0.07 nM | 5-HT2B BRET Eff % [2]: −6% | EC50 [3]: 34400 nM | 5-HT2C BRET Eff % [3]: 71%

CSc1ccccc1CCNCCc1ccc(C#N)cc1O [Cpd #134]
EC50 [1, 7]: 384 nM | 5-HT2A BRET Eff % ([1]; Table 2): 67% | EC50 ([2]; read-out: 5-HT2B BRET EC50): 620 nM | 5-HT2B BRET Eff % [2]: 85% | EC50 [3]: 160 nM | 5-HT2C BRET Eff % [3]: 87%

CSc1ccccc1CCCNCCc1ccc(C#N)cc1O [Cpd #135]
EC50 [1, 7]: 423 nM | 5-HT2A BRET Eff % ([1]; Table 2): 51% | EC50 ([2]; read-out: 5-HT2B BRET EC50): 502 nM | 5-HT2B BRET Eff % [2]: 15% | EC50 [3]: 121 nM | 5-HT2C BRET Eff % [3]: 65%

CSc1ccccc1CNCCCc1ccc(C#N)cc1O [Cpd #136]
EC50 [1, 7]: 1380 nM | 5-HT2A BRET Eff % ([1]; Table 2): 55% | EC50 ([2]; read-out: 5-HT2B BRET EC50): 7330 nM | 5-HT2B BRET Eff % [2]: 49% | EC50 [3]: 412 nM | 5-HT2C BRET Eff % [3]: 43%

N#Cc1ccc(CCNCc2ccccc2O)c(C(F)(F)F)c1 [Cpd #137]
EC50 [1, 5]: 312 nM | 5-HT2A BRET Eff % ([1]; Table 2): 89% | 5-HT2B BRET EC50 (nM) / Eff % [2]: Inactive | EC50 [3]: 56.5 nM | 5-HT2C BRET Eff % [3]: 83%

COc1cc(C#N)ccc1CCNCc1cccs1 [Cpd #138]
EC50 [1, 7]: 187 nM | 5-HT2A BRET Eff % ([1]; Table 2): 75% | EC50 ([2]; read-out: 5-HT2B BRET EC50): 0.03 nM | 5-HT2B BRET Eff % [2]: −2% | EC50 [3]: 198 nM | 5-HT2C BRET Eff % [3]: 102%

N#Cc1ccc(CCNCc2ccsc2Cl)c(O)c1 [Cpd #139]
EC50 [1, 7]: 1260 nM | 5-HT2A BRET Eff % ([1]; Table 2): 80% | 5-HT2B BRET EC50 (nM) / Eff % [2]: Inactive | EC50 [3]: 4670 nM | 5-HT2C BRET Eff % [3]: 91%

COc1cc(Oc2ccccc2)ccc1CCN [Cpd #140]
EC50 [1, 5]: 2890 nM | 5-HT2A BRET Eff % ([1]; Table 2): 87% | 5-HT2B BRET EC50 (nM) / Eff % [2]: Inactive | EC50 [3]: 796 nM | 5-HT2C BRET Eff % [3]: 107%

COc1cc2c(cc1CCNCc1ccccc1O)CCO2 [Cpd #141]
EC50 [1, 5]: 2.3 nM | 5-HT2A BRET Eff % ([1]; Table 2): 96% | EC50 ([2]; 5-HT2B BRET EC50 (nM)): 78.5 nM | 5-HT2B BRET Eff % [2]: 59% | EC50 [3]: 1.6 nM | 5-HT2C BRET Eff % [3]: 107%

CSc1ccccc1CNC[C@@H]1CCc2cc(C#N)cc(O)c21 [Cpd #142]
EC50 [1, 7]: 1960 nM | 5-HT2A BRET Eff % ([1]; Table 2): 68% | EC50 ([2]; read-out: 5-HT2B BRET EC50): 18.5 nM | 5-HT2B BRET Eff % [2]: −20% | EC50 [3]: 17600 nM | 5-HT2C BRET Eff % [3]: 108%
